Results: US20020010158A1, “Cardioprotective phosphonates and malonates” (priority 2000, published 2002)

What was measured:
Assay type in all cases: in vivo, rat
[1] = system: coronary artery ligated rats (myocardial infarction); test: Coronary artery ligation, mortality; conditions: male Sprague-Dawley rats, 10 mg/kg daily by gastric tube from 1 hour after occlusion
Description: (§1) Myocardial infarction was produced in male Sprague-Dawley rats (300-400 g) by occlusion of the left coronary artery. The rats were housed in clear cages in a temperature (19-22° C.) and humidity (50-55% RH) controlled room on a 12 hour light-dark cycle. Food and water were supplied ad libitum. Rats were anaesthized with 1-5% isoflurane in 100% O2 (2 L/minute flow rate). The skin was incised along the left sternal border and the 4th rib was cut proximal to the sternum and a retractor was inserted. The pericardial sac was opened and the heart externalized. The left anterior descending coronary artery was ligated approximately 2 mm from its origin on the aorta using a 6-0 silk suture. The heart was then repositioned in the chest and the incision closed via purse-string sutures. Sham-operated rats underwent identical treatment except that the artery was not ligated. Mortality due to surgery was less than 1%. All animals were allowed to recover, receiving food and water ad libitum for 21 days. Hemodynamic and histological assessments were made. […]
(§2) Rats were divided at random into five groups: sham operated, coronary artery ligated (untreated), coronary artery ligated (pyridoxal-5′-phosphate (P5P) treatment), coronary artery ligated (compound VII treated) and coronary artery ligated (compound XI treated). Treatment with P5P, compound VII and compound XI began 1 hour after coronary occlusion (or sham operation), and continued for 21 days. P5P, compound VII or compound XI (10 mg/kg) were administered daily (9 AM) by gastric tube. This dosage was chosen based on previous experience with P5P.
Mortality in all groups occurred only within the first 24 h after coronary ligation. While in the untreated group 50% of the rats died, the mortality rate dropped to 17-25% in the treated groups (Table I).

[2] = system: coronary artery ligated rats (left ventricle hemodynamics); test: Hemodynamic changes after coronary artery ligation; conditions: rats 21 days after coronary ligation; 10 mg/kg daily by gastric tube; mean±SD
Description: as §1, with “sutures.” for “sutures. Sham-operated rats underwent identical treatment except that the artery was not ligated. Mortality due to surgery was less than 1%. All animals were allowed to recover, receiving food and water ad libitum for 21 days. Hemodynamic and histological assessments were made.”
The animals prepared as described in Example 29 were anaesthetized with an injected cocktail of ketamine hydrochloirde (60 mg/kg) and xylazine (10 mg/kg). […] The catheter was secured with a silk ligature around the artery, and various hemodynamic parameters including left ventricular systolic pressure (LVSP), left ventricular end diastolic pressure (LVEDP), rate of contraction (+dP/dt), and rate of relaxation (−dP/dt), were recorded and calculated with Acknowledge 3.1 software (Biopac Systems Inc.). The animals were allowed 5-10 minutes to stabilize, after which parameters were measured as averages over three readings.

[3] = system: coronary artery ligated rats (cardiac hypertrophy); test: Cardiac hypertrophy after coronary artery ligation; conditions: rats 21 days after coronary ligation, 10 mg/kg daily by gastric tube
Description: Myocardial infarction was produced in male Sprague-Dawley rats (300-400 g) by occlusion of the left coronary artery. The rats were housed in clear cages in a temperature (19-22° C.) and humidity (50-55% RH) controlled room on a 12 hour light-dark cycle. Food and water were supplied ad libitum. Rats were anaesthized with 1-5% isoflurane in 100% O2 (2 L/minute flow rate). The skin was incised along the left sternal border and the 4th rib was cut proximal to the sternum and a retractor was inserted. The pericardial sac was opened and the heart externalized. The left anterior descending coronary artery was ligated approximately 2 mm from its origin on the aorta using a 6-0 silk suture. The heart was then repositioned in the chest and the incision closed via purse-string sutures. Sham-operated rats underwent identical treatment except that the artery was not ligated. Mortality due to surgery was less than 1%. All animals were allowed to recover, receiving food and water ad libitum for 21 days. Hemodynamic and histological assessments were made.
as §2
Hypertrophy is a physiological condition of enlargement (increased mass) due to increased stress. Cardiac hypertrophy is assessed by calculating the heart to body mass ratio.

SMILES | Mortality (%) [1] [%] | Total dead Rats [1] | Dead Rats 12 hr [1] | Dead Rats 24 hr [1] | Dead Rats 36 hr [1] | Dead Rats 48 hr [1] | Dead Rats 3 days [1] | LVSP (left ventricular systolic pressure) [2] | Cardiac Hypertophy, Heart Weight/Body Weight [3]
Cc1ncc(C(F)P(=O)(O)O)c(CO)c1O (stereo not drawn) [compound XI, (3-hydroxy-4-hydroxymethyl-2-methyl-5-pyridyl)fluoromethyl phosphonic Acid] | 25 | 3 | 3 | 0 | 0 | 0 | 0 | 115.0 ± 12.1 | significant decrease in cardiac hypertrophy
Cc1ncc(C(O)P(=O)(O)O)c(CO)c1O (stereo not drawn) [MC-5723, (3-hydroxy-4-hydroxymethyl-2-methyl-5-pyridyl)hydroxymethyl phosphonic Acid] |  |  |  |  |  |  |  |  | 0.0031 ± 0.0004
Cc1ncc(C(F)P(=O)(O)O)c(CO)c1O (stereo not drawn) [MC-5422, (3-hydroxy-4-hydroxymethyl-2-methyl-5-pyridyl)fluoromethyl phosphonic Acid] |  |  |  |  |  |  |  |  | 0.0032 ± 0.0002
Cc1ncc(COP(=O)(O)O)c(C=O)c1O [P5P, pyridoxal-5′-phosphate, reference compound] | 17 | 2 | 1 | 1 | 0 | 0 | 0 | 120.0 ± 10.6 | 
Cc1ncc(C(O)P(=O)(O)O)c(CO)c1O (stereo not drawn) [compound VII, (3-hydroxy-4-hydroxymethyl-2-methyl-5-pyridyl)hydroxymethyl phosphonic Acid] | 21 | 3 | 2 | 1 | 0 | 0 | 0 |  | significant decrease in cardiac hypertrophy
